Data from patent publication US20120302629A1, “BIOMARKERS FOR GOSSYPOL CHEMOTHERAPY AND METHODS OF TREATING DISEASE” (THE REGENTS OF THE UNIVERSITY OF MICHIGAN, priority 2009, published 2012).
Numbered stars: 1 amine (or outer) side, 2 acyl side, 3 side chain; on linkers, the order of the positions; unused ones are H or OH. Bridge positions count the residues as written; N and C are the ends. Square brackets hold non-standard residues; d marks the D form. Peptide text beside a SMILES is read from it. I, II: the chains in the order shown. Actinocin(9to1) = Cc1c2oc3c(C)ccc(C(=O)[*:1])c3nc-2c(C(=O)[*:2])c(N)c1=O; NMeV = CN[C@H](C(=O)O)C(C)C; Sar = CNCC(=O)O

Experiments:
2LMP cells [1] = experiment: Cell death by trypan blue dye exclusion; type: cell-based, human; conditions: for cell death: 48 h
Description: (§1) Cell Growth, Cell Death, and Apoptosis: Cell growth inhibition by (−)-gossypol was determined in a water-soluble tetrazolium (WST)-based assay, as described previously (Shangary et al., Proc. Natl. Acad. Sci. USA 105:3933 (2008)). Cell viability was determined by trypan blue due exclusion as described (Shangary et al., Proc. Natl. Acad. Sci. USA 105:3933 (2008)). Experiments were done in triplicate. To examine apoptosis, cells were stained with Annexin V and PI and analyzed by flow cytometery using an Annexin V-FITC staining kit (Roche Applied Science, Indianapolis, Ind.) according to manufacturer's instructions. Briefly, cells were treated and collected by centrifugation, washed with PBS once and then stained with annexinV-FITC and PI for 15 min at room temperature in the dark. Stained cells were analyzed in a FACS caliber flow cytometer. AnnexinV positive cells are considered as apoptotic cells.

PC-3 cells [2] = experiment: Cell death by trypan blue dye exclusion; type: cell-based, human; conditions: Mcl-1 knock-down
Description: as §1

2LMP cells [3] = experiment: WST cell growth assay; type: cell-based, human; conditions: Homo sapiens, 96 h; 4 days
Description: as §1

PC-3 cells [4] = experiment: WST cell growth assay; type: cell-based, human; conditions: Homo sapiens, PC-3, 96 h; 4 days
Description: as §1

MEF Bax/Bak KO cells = experiment: Apoptosis (Annexin V/PI flow cytometry) in MEF cells; type: cell-based; conditions: all the concentrations tested
Description: as §1

[5] = test system: Bcl-2 family proteins in 2LMP cells; experiment: Western blot of whole cell lysates; type: cell-based, human; conditions: cotreatment with (−)-gossypol (FIG. 26)
Description: (§2) Western blot assay: Proteins were harvested in RIPA buffer, then electrophoresed on 4-20% gradient SDS-PAGE gels (Invitrogen, Grand Island, N.Y.) and transferred to PVDF membranes. The membranes were blocked in 5% milk and then incubated with specific primary antibody, followed by secondary antibody. The signals were visualized with the chemiluminescent HRP antibody detection reagent (Deville Scientific, Metuchen, N.J.).

[6] = test system: Bcl-2 family proteins in PC-3 cells; experiment: Western blot of whole cell lysates; type: cell-based, human; conditions: cotreatment with (−)-gossypol (FIG. 26)
Description: as §2

[7] = test system: Noxa, Puma and Mcl-1 RNAs in 2LMP, PC-3, MDA-MB-436 and DU145 cells; experiment: Taqman real-time PCR with actinomycin D cotreatment; type: cell-based, human; conditions: cotreatment with (−)-gossypol 10 μm
Description: Real-Time PCR: Total RNA was extracted by RNA miniprep kit (Sigma) from cells treated with or without of (−)-gossypol. cDNA was synthesized from 2 μg of RNA using cDNA reverse transcription kits (Applied Biosystems). Next, Taqman gene expression assays were performed using Noxa (Hs00560402_ml), Puma (Hs00248075_ml), Mcl-1 (Hs00172036_ml) gene specific primers/probe sets for real-time PCR in a ABI7900HT PCR machine. GAPDH (Hs99999905_ml) was used for normalization. Relative quantitation of mRNA was calculated by comparative cycle threshold (Ct) method.

Compound: CN(C)CC[C@H](CSc1ccccc1)Nc1ccc(S(=O)(=O)NC(=O)c2ccc(N3CCN(Cc4ccccc4-c4ccc(Cl)cc4)CC3)cc2)cc1[N+](=O)[O-] [ABT-737, reference compound]
- cell death (2LMP cells [1]; 1 μM): no effect
- cell death (2LMP cells [1]; 2.5 μM): no effect
- cell death induction upon knock-down of Mcl-1 (2LMP cells [1]; Mcl-1 knock-down): sensitizes
- cell death induction upon knock-down of Mcl-1 (PC-3 cells [2]): sensitizes
- IC50 (2LMP cells [3]): > 10 µM
- IC50 (PC-3 cells [4]): > 10 µM

Compound: COc1cc([C@@H]2c3cc4c(cc3[C@@H](O[C@@H]3O[C@@H]5CO[C@@H](C)O[C@H]5[C@H](O)[C@H]3O)[C@H]3COC(=O)[C@H]23)OCO4)cc(OC)c1O [VP-16, 4′-demethylepipodophyllotoxin 9-[4,6-0-(R)-ethylidene-(beta)-D-glucopyranoside], reference compound]
- induction of cell death in the MEF Bax/Bak double knock-out (MEF Bax/Bak KO cells): blocked

Compound: Cc1c2oc3c(C)ccc(C(=O)N[C@@H]4C(=O)N[C@H](C(C)C)C(=O)N5CCC[C@H]5C(=O)N(C)CC(=O)N(C)[C@@H](C(C)C)C(=O)O[C@@H]4C)c3nc-2c(C(=O)N[C@@H]2C(=O)N[C@H](C(C)C)C(=O)N3CCC[C@H]3C(=O)N(C)CC(=O)N(C)[C@@H](C(C)C)C(=O)O[C@@H]2C)c(N)c1=O [actinomycin D, reference compound] (I: T[dV]P[Sar][NMeV] / II: T[dV]P[Sar][NMeV]; ester I:1-I:C, II:1-II:C; linker I:N-II:N via Actinocin(9to1))
- (−)-gossypol-upregulated Noxa and Puma proteins under cotreatment [5]: significantly blocked
- (−)-gossypol-upregulated Noxa and Puma proteins under cotreatment [6]: significantly blocked
- upregulation of Noxa, Puma and Mcl-1 RNAs by (−)-gossypol under cotreatment [7]: completely blocks

Compound: CC(C)C[C@H](NC(=O)[C@H](Cc1ccccc1)NC(=O)c1cnccn1)B(O)O [bortezomib, reference compound]
- cell death upon knock-down of c-Myc (2LMP cells [1]; c-Myc siRNA, 24 h): blocked cell death
